Measurements taken from PubChem BioAssay (NCI).
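All cell lines were grown in 96-well plates and treated with compound for 48 hours. TGI: concentration producing complete growth inhibition.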

Tests used:
Assay in all cases: NCI anticancer screen, dose series, 48 h
[1] = test system: ACHN renal
[2] = test system: K-562 leukemia
[3] = test system: IGROV1 ovarian
[4] = test system: MOLT-4 leukemia
[5] = test system: SNB-19 CNS
[6] = test system: U251 CNS
[7] = test system: HT29 colon
[8] = test system: SW-620 colon
[9] = test system: PC-3 prostate
[10] = test system: UACC-257 melanoma
[11] = test system: OVCAR-4 ovarian
[12] = test system: MALME-3M melanoma
[13] = test system: SK-OV-3 ovarian
[14] = test system: DU-145 prostate
[15] = test system: NCI/ADR-RES ovarian
[16] = test system: SK-MEL-28 melanoma
[17] = test system: SF-268 CNS
[18] = test system: RPMI-8226 leukemia
[19] = test system: NCI-H23 lung
[20] = test system: UO-31 renal
[21] = test system: OVCAR-3 ovarian
[22] = test system: OVCAR-8 ovarian
[23] = test system: BT-549 breast
[24] = test system: HCT-15 colon
[25] = test system: MCF7 breast
[26] = test system: MDA-MB-435
[27] = test system: COLO 205 colon
[28] = test system: M14 melanoma
[29] = test system: HS 578T breast
[30] = test system: SF-539 CNS
[31] = test system: OVCAR-5 ovarian
[32] = test system: SK-MEL-5 melanoma
[33] = test system: HL-60(TB) leukemia
[34] = test system: 786-0 renal
[35] = test system: NCI-H522 lung
[36] = test system: SF-295 CNS
[37] = test system: EKVX NSCLC
[38] = test system: MDA-N
[39] = test system: KM12 colon
[40] = test system: A549 NSCLC
[41] = test system: CAKI-1 renal
[42] = test system: HCC-2998 colon
[43] = test system: NCI-H460 lung
[44] = test system: LOX IMVI melanoma
[45] = test system: UACC-62 melanoma
[46] = test system: HCT-116 colon
[47] = test system: A498 renal
[48] = test system: HOP-62 NSCLC
[49] = test system: SR leukemia
[50] = test system: SK-MEL-2 melanoma
[51] = test system: CCRF-CEM leukemia
[52] = test system: RXF 393 renal
[53] = test system: MDA-MB-231 breast
[54] = test system: SN12C renal
[55] = test system: HOP-92 NSCLC
[56] = test system: SNB-75 CNS
[57] = test system: NCI-H226 lung
[58] = test system: TK-10 renal

For `COC(=O)[C@](NC(=O)OCc1ccccc1)([C@@H](C)Sc1ccc(C)cc1)C(F)(F)F`, the TGI [1] was > 100 µM, the TGI [2] was > 100 µM and the TGI [3] was > 100 µM. For the same compound, the TGI [4] was > 100 µM, the TGI [5] was > 100 µM and the TGI [6] was > 100 µM. The TGI [7] was > 100 µM, the TGI [8] was > 100 µM and the TGI [9] was > 100 µM. The TGI [10] was > 100 µM, the TGI [11] was > 100 µM and the TGI [12] was > 100 µM. For the same compound, the TGI [13] was > 100 µM, the TGI [14] was > 100 µM and the TGI [15] was > 100 µM. The TGI [16] was > 100 µM, the TGI [17] was > 100 µM and the TGI [18] was > 100 µM. For the same compound, the TGI [19] was 58.5 µM, the TGI [20] was > 100 µM and the TGI [21] was > 100 µM. The TGI [22] was 60 µM, the TGI [23] was > 100 µM and the TGI [24] was > 100 µM. The TGI [25] was > 100 µM, the TGI [26] was > 100 µM and the TGI [27] was 38.4 µM. The TGI [28] was > 100 µM, the TGI [29] was > 100 µM and the TGI [30] was > 100 µM. For the same compound, the TGI [31] was > 100 µM, the TGI [32] was 38.2 µM and the TGI [33] was 78.3 µM. The TGI [34] was > 100 µM, the TGI [35] was > 100 µM and the TGI [36] was > 100 µM. For the same compound, the TGI [37] was > 100 µM, the TGI [38] was > 100 µM and the TGI [39] was > 100 µM. The TGI [40] was > 100 µM, the TGI [41] was > 100 µM and the TGI [42] was > 100 µM. The TGI [43] was > 100 µM, the TGI [44] was > 100 µM and the TGI [45] was > 100 µM. For the same compound, the TGI [46] was > 100 µM, the TGI [47] was > 100 µM and the TGI [48] was > 100 µM. For the same compound, the TGI [49] was > 100 µM, the TGI [50] was > 100 µM and the TGI [51] was 50.7 µM.

In the case of `CN(CC(=O)O)c1ncc2c(n1)-c1ccccc1OC2c1ccccc1` (stereo unspecified), the TGI [1] is reported as > 100 µM, the TGI [2] is reported as > 100 µM and the TGI [52] is reported as > 100 µM. The TGI [53] was > 100 µM, the TGI [3] was > 100 µM and the TGI [4] was > 100 µM. The TGI [54] was > 100 µM, the TGI [5] was > 100 µM and the TGI [6] was > 100 µM. The TGI [7] was > 100 µM, the TGI [8] was > 100 µM and the TGI [9] was > 100 µM. For the same compound, the TGI [10] was > 100 µM, the TGI [11] was > 100 µM and the TGI [12] was > 100 µM. For the same compound, the TGI [13] was > 100 µM, the TGI [14] was > 100 µM and the TGI [15] was > 100 µM. For the same compound, the TGI [16] was > 100 µM, the TGI [17] was > 100 µM and the TGI [18] was > 100 µM. The TGI [19] was > 100 µM, the TGI [55] was > 100 µM and the TGI [20] was > 100 µM. The TGI [21] was > 100 µM, the TGI [22] was > 100 µM and the TGI [24] was > 100 µM. For the same compound, the TGI [56] was > 100 µM, the TGI [25] was > 100 µM and the TGI [26] was > 100 µM. The TGI [57] was > 100 µM, the TGI [27] was > 100 µM and the TGI [28] was > 100 µM. The TGI [29] was > 100 µM, the TGI [30] was > 100 µM and the TGI [31] was > 100 µM. For the same compound, the TGI [32] was > 100 µM, the TGI [33] was > 100 µM and the TGI [35] was > 100 µM. The TGI [36] was > 100 µM, the TGI [37] was > 100 µM and the TGI [38] was > 100 µM. For the same compound, the TGI [39] was > 100 µM, the TGI [58] was > 100 µM and the TGI [40] was > 100 µM. The TGI [41] was > 100 µM, the TGI [43] was > 100 µM and the TGI [44] was > 100 µM. The TGI [45] was > 100 µM, the TGI [48] was > 100 µM and the TGI [49] was > 100 µM. The TGI [50] was > 100 µM and the TGI [51] was > 100 µM.

`CC1(C)CC2=C(SC3C=CC=CC3N2)C(=O)C1C(=O)C(N)=O` (stereo unspecified) was tested, and the TGI [1] was > 100 µM, the TGI [53] was > 100 µM and the TGI [3] was > 100 µM. The TGI [4] was > 100 µM, the TGI [54] was > 100 µM and the TGI [5] was > 100 µM. For the same compound, the TGI [6] was > 100 µM, the TGI [7] was > 100 µM and the TGI [8] was > 100 µM. The TGI [9] was > 100 µM, the TGI [10] was > 100 µM and the TGI [11] was > 100 µM. The TGI [13] was > 100 µM, the TGI [14] was > 100 µM and the TGI [15] was > 100 µM. The TGI [16] was > 100 µM, the TGI [17] was > 100 µM and the TGI [19] was > 100 µM. For the same compound, the TGI [55] was > 100 µM, the TGI [20] was > 100 µM and the TGI [21] was > 100 µM. The TGI [22] was > 100 µM, the TGI [23] was > 100 µM and the TGI [24] was > 100 µM. The TGI [56] was > 100 µM, the TGI [25] was > 100 µM and the TGI [26] was > 100 µM. The TGI [57] was > 100 µM, the TGI [27] was > 100 µM and the TGI [28] was > 100 µM. For the same compound, the TGI [29] was > 100 µM, the TGI [30] was > 100 µM and the TGI [31] was > 100 µM. For the same compound, the TGI [32] was > 100 µM, the TGI [33] was > 100 µM and the TGI [34] was > 100 µM. The TGI [35] was > 100 µM, the TGI [36] was > 100 µM and the TGI [37] was > 100 µM. For the same compound, the TGI [38] was > 100 µM, the TGI [39] was > 100 µM and the TGI [58] was > 100 µM. The TGI [40] was > 100 µM, the TGI [41] was > 100 µM and the TGI [42] was > 100 µM. The TGI [43] was > 100 µM, the TGI [44] was > 100 µM and the TGI [45] was > 100 µM. For the same compound, the TGI [46] was > 100 µM, the TGI [48] was > 100 µM and the TGI [50] was > 100 µM. For the same compound, the TGI [51] was > 100 µM.
